The results in this text go back to PubChem BioAssay AID248 (DTP/NCI, 2004).

The experiment deals with L1210 leukemia ip in BDF1 mice, survival T/C. Nature of the experiment: NCI In Vivo Anticancer Drug Screen. Data for tumor model L1210 Leukemia (intraperitoneal) in B6D2F1 (BDF1) mice. Particulars: endpoint: mean survival time, higher = longer survival. In short, it runs like this:
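Transplantable tumor model; survival measured in treated vs vehicle control mice. Value = treated/control.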

Where [1] appears, read: dose: 100.0 mg/kg/injection, schedule: Q04DX003 (ip), vehicle: Klucel (hydroxypropylcellulose) (HPC).
The mark [2] stands for this setting: dose: 200.0 mg/kg/injection, schedule: Q04DX003 (ip), vehicle: Klucel (hydroxypropylcellulose) (HPC).
[3] abbreviates: dose: 400.0 mg/kg/injection, schedule: Q04DX003 (ip), vehicle: Klucel (hydroxypropylcellulose) (HPC).
[4] abbreviates: dose: 100.0 mg/kg/injection, schedule: Q01DX009 (ip), vehicle: saline with Tween-80.
[5] abbreviates: dose: 200.0 mg/kg/injection, schedule: Q01DX009 (ip), vehicle: saline with Tween-80.
Setting [6] is: dose: 100.0 mg/kg/injection, schedule: Q04DX003 (ip), vehicle: saline with Tween-80.
The mark [7] stands for this setting: dose: 200.0 mg/kg/injection, schedule: Q04DX003 (ip), vehicle: saline with Tween-80.
Where [8] appears, read: dose: 400.0 mg/kg/injection, schedule: Q01DX009 (ip), vehicle: saline with Tween-80.
Where [9] appears, read: dose: 400.0 mg/kg/injection, schedule: Q04DX003 (ip), vehicle: saline with Tween-80.
Setting [10] is: dose: 100.0 mg/kg/injection, schedule: Q01DX001 (ip), vehicle: carboxymethylcellulose (CMC).
Where [11] appears, read: dose: 200.0 mg/kg/injection, schedule: Q01DX001 (ip), vehicle: carboxymethylcellulose (CMC).
[12] abbreviates: dose: 400.0 mg/kg/injection, schedule: Q01DX001 (ip), vehicle: carboxymethylcellulose (CMC).
The mark [13] stands for this setting: dose: 100.0 mg/kg/injection, schedule: Q01DX009 (ip), vehicle: Klucel (hydroxypropylcellulose) (HPC).
The mark [14] stands for this setting: dose: 200.0 mg/kg/injection, schedule: Q01DX009 (ip), vehicle: Klucel (hydroxypropylcellulose) (HPC).
Setting [15] is: dose: 400.0 mg/kg/injection, schedule: Q01DX009 (ip), vehicle: Klucel (hydroxypropylcellulose) (HPC).
[16] abbreviates: dose: 100.0 mg/kg/injection, schedule: Q01DX001 (ip), vehicle: saline with Tween-80.
The mark [17] stands for this setting: dose: 200.0 mg/kg/injection, schedule: Q01DX001 (ip), vehicle: saline with Tween-80.
Where [18] appears, read: dose: 400.0 mg/kg/injection, schedule: Q01DX001 (ip), vehicle: saline with Tween-80.

Where “and” joins values, the source holds several entries; their conditions need not be identical. Identical values can stand only once. Toxic doses and inconclusive results are not listed.

In the case of `CS(=O)c1ccc([N+](=O)[O-])cc1` (stereo unspecified), the T/C is, setting by setting: under setting [1], 98 % of control; under setting [2], 104 % of control; under setting [3], 105 % of control.

As to `Nc1c(Br)cc([N+](=O)[O-])cc1Br`, the T/C reads like this: under setting [1], 111 % of control; under setting [2], 95 % of control; under setting [3], 105 % of control.

As for `CCc1oc(=O)c2ccccc2c1-c1ccccc1`, the T/C was 93 % of control (dose: 50.0 mg/kg/injection, schedule: Q01DX009 (ip), vehicle: saline with Tween-80); 90 % of control under setting [4]; 93 % of control under setting [5].

Turning to `O=[N+]([O-])c1ccc(C=Nc2ccc(C(c3ccccc3)(c3ccccc3)c3ccccc3)cc2)s1`, the T/C is, setting by setting: under setting [1], 95 % of control; under setting [2], 97 % of control; under setting [3], 93 % of control.

For the molecule `Nc1ccc(-c2ccc(N)cc2Br)c(Br)c1`, the T/C reads like this: under setting [4], 99 % of control; under setting [6], 95 % of control; under setting [5], 105 % of control; under setting [7], 97 % of control; under setting [8], 88 % of control; under setting [9], 92 % of control.

For the molecule `O=C(O)c1cc(O)ccc1N=Nc1ccccc1`, the T/C under setting [10] was 95 % of control, the T/C under setting [11] was 95 % of control and the T/C under setting [12] is 98 % of control.

`c1c[nH]c(Cc2ccc3ccccc3c2)c1`: the T/C by setting is: (dose: 100.0 mg/kg/injection, schedule: Q01DX009 (ip), vehicle: other) 110 % of control; (dose: 100.0 mg/kg/injection, schedule: Q04DX003 (ip), vehicle: other) 102 % of control; (dose: 200.0 mg/kg/injection, schedule: Q01DX009 (ip), vehicle: other) 97 % of control; (dose: 200.0 mg/kg/injection, schedule: Q04DX003 (ip), vehicle: other) 101 % of control; (dose: 400.0 mg/kg/injection, schedule: Q01DX009 (ip), vehicle: other) 110 % of control; (dose: 400.0 mg/kg/injection, schedule: Q04DX003 (ip), vehicle: other) 102 % of control.

In the case of `O=C(OC1C2C=CC1C1C(=O)NC21)c1ccccc1` (stereo unspecified), the T/C was 97 % of control (dose: 75.0 mg/kg/injection, schedule: Q01DX001 (ip), vehicle: carboxymethylcellulose (CMC)); 102 % of control (dose: 150.0 mg/kg/injection, schedule: Q01DX001 (ip), vehicle: carboxymethylcellulose (CMC)); 113 % of control (dose: 300.0 mg/kg/injection, schedule: Q01DX001 (ip), vehicle: carboxymethylcellulose (CMC)).

`O=C1C=C(O)C2C3C=CC(CC3)C12` (stereo unspecified): the T/C by setting is: (dose: 100.0 mg/kg/injection, schedule: Q04DX002 (ip), vehicle: Klucel (hydroxypropylcellulose) (HPC)) 106 % of control; (dose: 200.0 mg/kg/injection, schedule: Q04DX002 (ip), vehicle: Klucel (hydroxypropylcellulose) (HPC)) 106 % of control; (dose: 400.0 mg/kg/injection, schedule: Q04DX002 (ip), vehicle: Klucel (hydroxypropylcellulose) (HPC)) 92 % of control.

`CC(C)OC(=O)Nc1ccc(-c2ccc(NC(=O)OC(C)C)cc2)cc1`: the T/C is 95 % of control under setting [13]; 91 % of control under setting [1]; 97 % of control under setting [14]; 91 % of control under setting [2]; 97 % of control under setting [15]; 98 % of control under setting [3].

On to `NC(=O)NC1CCCCCCC1`, for which the T/C is 98 % of control under setting [6], 89 % of control under setting [7] and 95 % of control under setting [9].

As for `COc1ccc2c(c1)CC1c3[nH]c4ccccc4c3CCN1C2` (stereo unspecified), the T/C by setting is: (dose: 100.0 mg/kg/injection, schedule: Q01DX001 (ip), vehicle: Klucel (hydroxypropylcellulose) (HPC)) 94 % of control; (dose: 200.0 mg/kg/injection, schedule: Q01DX001 (ip), vehicle: Klucel (hydroxypropylcellulose) (HPC)) 92 % of control.

Turning to `CC1(C)N([O-])[N+](=O)C1(C)C`, the T/C under setting [16] was 97 % of control, the T/C under setting [17] is 101 % of control and the T/C under setting [18] is 101 % of control.

Take `CCCCN(C)N=Nc1ccc([N+](=O)[O-])cc1C(N)=O`: the T/C is 100 % of control (dose: 100.0 mg/kg/injection, schedule: Q01DX001 (ip), vehicle: other); 110 % of control under setting [6]; 105 % of control (dose: 200.0 mg/kg/injection, schedule: Q01DX001 (ip), vehicle: other); 122 % of control under setting [5]; 109 % of control under setting [7]; 160 % of control (dose: 266.0 mg/kg/injection, schedule: Q01DX009 (ip), vehicle: saline with Tween-80). Further, the T/C is 110 % of control (dose: 400.0 mg/kg/injection, schedule: Q01DX001 (ip), vehicle: other); 165 % of control and 170 % of control under setting [8]; 115 % of control under setting [9]; 200 % of control (dose: 600.0 mg/kg/injection, schedule: Q01DX009 (ip), vehicle: saline with Tween-80).

With `CN(C)c1ccc(/C=C/C(=O)/C=C/c2ccc(N(C)C)cc2)cc1`, the T/C runs as follows: under setting [13], 96 % of control; under setting [14], 95 % of control; under setting [15], 101 % of control.

Consider `CC(=O)OC(C1C[C@@]2(C)[C@@H](CC[C@@H]3[C@@H]2CC[C@]2(C)[C@@H](OC(C)=O)CC[C@@H]32)CC1=O)C(F)(F)F` (stereo partly specified), for which the T/C (dose: 50.0 mg/kg/injection, schedule: Q01DX009 (ip), vehicle: carboxymethylcellulose (CMC)) is 97 % of control; the T/C (dose: 100.0 mg/kg/injection, schedule: Q01DX009 (ip), vehicle: carboxymethylcellulose (CMC)) was 89 % of control; the T/C (dose: 200.0 mg/kg/injection, schedule: Q01DX009 (ip), vehicle: carboxymethylcellulose (CMC)) was 95 % of control.

Regarding `OC1OCC(OCc2ccccc2)C(OCc2ccccc2)C1OCc1ccccc1` (stereo unspecified), the T/C under setting [10] is 101 % of control, the T/C under setting [11] was 101 % of control and the T/C under setting [12] was 95 % of control.

For `CC(=O)OCc1cc(=O)c(OC(C)=O)co1`, the T/C was 112 % of control under setting [1], 96 % of control under setting [2] and 98 % of control under setting [3].

On to `CCCCC(CC)C(=O)[O][Ge]([CH2]CCC)([CH2]CCC)[O]C(=O)C(CC)CCCC` (stereo unspecified), for which the T/C by setting is: under setting [16], 101 % of control; under setting [17], 100 % of control; under setting [18], 100 % of control.

Regarding `COc1cc2c(cc1OC)C(C#N)C2` (stereo unspecified), the T/C is, setting by setting: (dose: 6.0 mg/kg/injection, schedule: Q01DX009 (ip), vehicle: Klucel (hydroxypropylcellulose) (HPC)) 104 % of control; (dose: 12.0 mg/kg/injection, schedule: Q01DX009 (ip), vehicle: Klucel (hydroxypropylcellulose) (HPC)) 92 % of control; (dose: 12.0 mg/kg/injection, schedule: Q04DX003 (ip), vehicle: Klucel (hydroxypropylcellulose) (HPC)) 100 % of control and 105 % of control; (dose: 25.0 mg/kg/injection, schedule: Q01DX009 (ip), vehicle: Klucel (hydroxypropylcellulose) (HPC)) 100 % of control; (dose: 25.0 mg/kg/injection, schedule: Q04DX003 (ip), vehicle: Klucel (hydroxypropylcellulose) (HPC)) 100 % of control; (dose: 50.0 mg/kg/injection, schedule: Q04DX003 (ip), vehicle: Klucel (hydroxypropylcellulose) (HPC)) 97 % of control and 92 % of control.

With `O=C(c1ccccc1)C(Br)[N+](=O)[O-]` (stereo unspecified), the T/C is 100 % of control (dose: 100.0 mg/kg/injection, schedule: Q01DX001 (ip), vehicle: saline); 103 % of control (dose: 200.0 mg/kg/injection, schedule: Q01DX001 (ip), vehicle: saline); 96 % of control (dose: 400.0 mg/kg/injection, schedule: Q01DX001 (ip), vehicle: saline).
